In US20150258072A1, “Antibacterial compositions” (WOCKHARDT LIMITED, priority 2012, published 2015):
Where two headings read alike, the source gives them in different places.

Tests used:
Type in all cases: cell-based
[1] = tested on: K. pneumoniae ATCC 700603 strain producing SHV 18 ESBL; assay: Cidal activity (bacterial count over time); settings: for Bacterial count: concentrations in label
[2] = tested on: K. pneumoniae ATCC 700603 strain producing SHV 18 ESBL; assay: MIC by agar dilution (CLSI); settings: Klebsiella pneumoniae
Method: The efficacy of compositions and methods in treating or controlling bacterial infections was studied. In a typical study, overnight grown bacterial cultures were diluted appropriately and inoculated on the agar media containing doubling dilutions of the antibiotic. Observation for growth or no growth was performed after 16-20 hours of incubation at 35±2° C. in ambient air. The overall procedure was performed as per Clinical and Laboratory Standards Institute (CLSI) recommendations (Clinical and Laboratory Standards Institute (CLSI), performance Standards for Antimicrobial Susceptibility Testing, 20th Informational Supplement, M 100-S20, Volume 30, No. 1, 2010).

[3] = tested on: K. pneumoniae B 43 strain producing SHV and TEM ESBLs; assay: Cidal activity (bacterial count over time); settings: concentrations in label
[4] = Table 6, 2 hours, initial count 7.27 log CFU/ml
[5] = Table 6, 4 hours, initial count 7.27 log CFU/ml
[6] = Table 6, 8 hours, initial count 7.27 log CFU/ml
[7] = Table 7, 2 hours, initial count 7.27 log CFU/ml
[8] = Table 7, 4 hours, initial count 7.27 log CFU/ml
[9] = Table 7, 8 hours, initial count 7.27 log CFU/ml
[10] = Table 3, 2 hours, initial count 7.04 log CFU/ml
[11] = Table 3, 6 hours, initial count 7.04 log CFU/ml
[12] = Table 3, 8 hours, initial count 7.04 log CFU/ml
[13] = Table 2, 2 hours, initial count 6.65 log CFU/ml
[14] = Table 2, 6 hours, initial count 6.65 log CFU/ml
[15] = Table 2, 8 hours, initial count 6.65 log CFU/ml
[16] = Table 5, 2 hours, initial count log 7.43 CFU/ml
[17] = Table 5, 4 hours, initial count log 7.43 CFU/ml
[18] = Table 5, 8 hours, initial count log 7.43 CFU/ml
[19] = Table 4, 2 hours, initial count 7.43 log CFU/ml
[20] = Table 4, 4 hours, initial count 7.43 log CFU/ml
[21] = Table 4, 8 hours, initial count 7.43 log CFU/ml

Structure (SMILES) | Bacterial count [1, 4] | Bacterial count [1, 5] | Bacterial count [1, 6] | Bacterial count [1, 7] | Bacterial count [1, 8] | Bacterial count [1, 9] | Bacterial count [3, 10] | Bacterial count [3, 11] | Bacterial count [3, 12] | Bacterial count [1, 13] | Bacterial count [1, 14] | Bacterial count [1, 15] | antibacterial activity (growth in presence of drug alone) ([1]; Table 2) | Bacterial count [3, 16] | Bacterial count [3, 17] | Bacterial count [3, 18] | Bacterial count [1, 19] | Bacterial count [1, 20] | Bacterial count [1, 21] | further results
COCC1=C(C(=O)O)N2C(=O)[C@@H](NC(=O)/C(=N\OC)c3csc(N)n3)[C@H]2SC1 [Cefpodoxime (2 mcg/ml), cefpodoxime] | 8.54 Log CFU/ml | 9 Log CFU/ml | 9 Log CFU/ml | – | – | – | – | – | – | – | – | – | – | – | – | – | – | – | – | –
CO/N=C(\C(=O)N[C@@H]1C(=O)N2C(C(=O)O)=C(COC(N)=O)CS[C@H]12)c1ccco1 [Cefuroxime (2 mcg/ml), cefuroxime] | – | – | – | 8.77 Log CFU/ml | 8.90 Log CFU/ml | 9 Log CFU/ml | – | – | – | – | – | – | – | – | – | – | – | – | – | –
CC1(C)S[C@@H]2[C@H](NC(=O)[C@H](N)c3ccc(O)cc3)C(=O)N2[C@H]1C(=O)O [Amoxicillin, amoxicillin] | – | – | – | – | – | – | 7.8 Log CFU/ml | 8.8 Log CFU/ml | 9 Log CFU/ml | 7.84 Log CFU/ml | 8.5 Log CFU/ml | 9 Log CFU/ml | no antibacterial activity | – | – | – | – | – | – | MIC ([2]; ATCC700603, amoxicillin alone or with fixed concentration of partner(s) named in the label, read-out: MIC of Amoxicillin): > 64 µg/mL
C[C@@H](O)[C@H]1C(=O)N2C(C(=O)O)=C(SCCN=CN)C[C@H]12 [Imipenem, imipenem] | 5.32 Log CFU/ml | 3.84 Log CFU/ml | 2.32 Log CFU/ml | 5.32 Log CFU/ml | 3.84 Log CFU/ml | 2.32 Log CFU/ml | 5.4 Log CFU/ml | 3.9 Log CFU/ml | 3.8 Log CFU/ml | 5.32 Log CFU/ml | 2.6 Log CFU/ml | 2.0 Log CFU/ml | – | 6.37 Log CFU/ml | 5.69 Log CFU/ml | 6.60 Log CFU/ml | 4.87 Log CFU/ml | 3.39 Log CFU/ml | 2.84 Log CFU/ml | –
O=C(O)[C@H]1/C(=C/CO)O[C@@H]2CC(=O)N21 [Clavulanic acid, clavulanic acid] | 8.47 Log CFU/ml | 9.09 Log CFU/ml | 9.09 Log CFU/ml | 8.47 Log CFU/ml | 9.09 Log CFU/ml | 9.09 Log CFU/ml | 8.1 Log CFU/ml | 8.7 Log CFU/ml | 9 Log CFU/ml | 8.1 Log CFU/ml | 8.8 Log CFU/ml | 9 Log CFU/ml | no antibacterial activity | 8.1 Log CFU/ml | 8.56 Log CFU/ml | 8.85 Log CFU/ml | 8.4 Log CFU/ml | 8.65 Log CFU/ml | 8.9 Log CFU/ml | MIC ([2]; ATCC700603, read-out: MIC value when used alone): > 64 µg/mL
C=CC1=C(C(=O)O)N2C(=O)[C@@H](NC(=O)/C(=N\OCC(=O)O)c3csc(N)n3)[C@H]2SC1 [Cefixime (2 mcg/ml), cefixime] | – | – | – | – | – | – | – | – | – | – | – | – | – | 8.16 Log CFU/ml | 8.47 Log CFU/ml | 8.84 Log CFU/ml | 8.11 Log CFU/ml | 8.30 Log CFU/ml | 9 Log CFU/ml | –
CC1(C)S[C@@H]2[C@H](/N=C/N3CCCCCC3)C(=O)N2[C@H]1C(=O)O [Mecillinam, mecillinam] | 8.23 Log CFU/ml | 8.74 Log CFU/ml | 9.47 Log CFU/ml | 8.23 Log CFU/ml | 8.74 Log CFU/ml | 9.47 Log CFU/ml | 7.74 Log CFU/ml | 8.69 Log CFU/ml | 8.89 Log CFU/ml | 7.47 Log CFU/ml | 8.23 Log CFU/ml | 9.1 Log CFU/ml | no antibacterial activity | 8.39 Log CFU/ml | 8.60 Log CFU/ml | 8.90 Log CFU/ml | 7.95 Log CFU/ml | 8.33 Log CFU/ml | 8.90 Log CFU/ml | MIC ([2]; ATCC700603, agent used alone, read-out: MIC value when used alone): > 64 µg/mL
